According to patent US9241492B2, “Bioactive acid agrichemical compositions and use thereof” (Sciessent LLC, priority 2007, dated 2016):

Tested on: E. amylovora 153N
Test: Fire blight on Snow Drift crabapple trees (Example 311)
Type: in vivo
Settings: rate 5 lbs/a (2.27 kg/a)
Experimental: A study of the bioefficacy of the various agrichemical compositions, including bioactive acid solutions and blends thereof with an antibiotic agrichemical, were evaluated to assess their bioefficacy against fire blight on crabapples. The study was conducted on 5 year old Snow Drift crabapple trees, with each of the compositions being applied to ten trees in two-subplots of five trees, four different times: at 100% bloom—day 1, a second application was made on day 4, a third on day 11 and a final treatment on day 19. The trees were inoculated with E. amylovora 153N at a concentration of 4×10^6 cells per milliliter on day 1, following drying of the treatment, with the inoculation being repeated on day 13. Evaluation for fire blight was completed on 100 blossoms for each of the subplots on day 12, day 19 and day 27. Additionally, the incidence of shoot infection and the length of cankers were evaluated on day 63.
The test compositions were prepared by forming solutions of the bioactive agents. Two different dilutions of the MI2 bioactive were evaluated, the first employing 94.46 ml/gallon (25 ml/l) of water (5 ppm of each metal) and the second 188.9 ml/gallon (50 ml/l) of water (10 ppm of each metal). A streptomycin product (17% concentrated) was diluted at a rate of 0.049 lbs/gallon ([…]) (200 ppm). Finally, copper hydroxide was diluted at a rate of 1 lb/gallon (119.8 g/l). Each of the compositions and blends were spray applied at a rate of 50 gallons (189.3 l) pre acre. The results are presented as the mean of the counts.

[Cu+2].[OH-].[OH-] [copper hydroxide]
Blossom Incidence Day 12 (day 12, mean of counts per 100 blossoms): 3.1
Blossom Incidence Day 19 (day 19): 2.2
Blossom Incidence Day 27 (day 27): 9.0
Canker Size Day 63 (day 63): 0.0 cm
Shoot Incidence Day 63 (day 63): 1.0
